# Laboratory results from the supplement of paper PMC10307832.
# Experiments:
# Assay in all cases: relative viability (nuclei count vs DMSO), 5 days (fraction); higher = more cells survive
# [1] = compound: C1CNCCC1C2=CC(=NN2)C3=CC=NC=C3 + COc1cc2c(Oc3ccc(NC(=O)C4(C(=O)Nc5ccc(F)cc5)CC4)cc3F)ccnc2cc1OCCCN1CCOCC1 [Foretinib] (partner 0.25 µM)
# In short: (§1)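 Values are medians from duplicate plates. Each reflects relative viability, defined as the nuclei count of treated wells over that of vehicle wells. Lung cancer cell lines in 1536-well plates were pin-tool dosed one day after seeding with one drug alone or with a fixed anchor-drug dose plus five library-drug doses (not always all listed) in √10 steps, then fixed, stained and imaged at 4× after 5 days.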
# [2] = compound: C[C@@H](N)c1ccc(C(=O)Nc2ccnc3[nH]ccc23)cc1 + CC1(C)CCC(c2ccc(Cl)cc2)=C(CN2CCN(c3ccc(C(=O)NS(=O)(=O)c4ccc(N[C@H](CCN5CCOCC5)CSc5ccccc5)c(S(=O)(=O)C(F)(F)F)c4)cc3)CC2)C1 [Navitoclax] (partner 0.5 µM)
# In short: as §1
# [3] = compound: C[C@@H](N)c1ccc(C(=O)Nc2ccnc3[nH]ccc23)cc1 + COc1cc2c(Oc3ccc(NC(=O)C4(C(=O)Nc5ccc(F)cc5)CC4)cc3F)ccnc2cc1OCCCN1CCOCC1 [Foretinib] (partner 0.25 µM)
# In short: as §1
# Tanzisertib + Lapatinib = compound: O[C@H]1CC[C@H](Nc2ncc3nc(Nc4c(F)cc(F)cc4F)n([C@H]4CCOC4)c3n2)CC1 [Tanzisertib] + CS(=O)(=O)CCNCc1ccc(-c2ccc3ncnc(Nc4ccc(OCc5cccc(F)c5)c(Cl)c4)c3c2)o1 [Lapatinib] (partner 2 µM)
# In short: as §1
cell line,measurement,setting,value
UMC-11,relative viability,[1]; first compound 0.08 µM,1
same,relative viability,[1]; first compound 0.8 µM,1.17
same,relative viability,[1]; first compound 2.53 µM,1.09
same,relative viability,[1]; first compound 8 µM,1.09
same,relative viability,[2]; first compound 0.04 µM,0.318
same,relative viability,[2]; first compound 0.1265 µM,0.323
same,relative viability,[2]; first compound 0.4 µM,0.332
same,relative viability,[2]; first compound 1.265 µM,0.27
same,relative viability,[2]; first compound 4 µM,0.211
same,relative viability,[3]; first compound 0.04 µM,1.14
same,relative viability,[3]; first compound 0.1265 µM,1.1
same,relative viability,[3]; first compound 0.4 µM,1.12
same,relative viability,[3]; first compound 1.265 µM,1
same,relative viability,[3]; first compound 4 µM,0.694
same,relative viability,Tanzisertib + Lapatinib; first compound 0.08 µM,1.13
same,relative viability,Tanzisertib + Lapatinib; first compound 0.253 µM,0.974
same,relative viability,Tanzisertib + Lapatinib; first compound 0.8 µM,1.1
same,relative viability,Tanzisertib + Lapatinib; first compound 2.53 µM,0.89
same,relative viability,Tanzisertib + Lapatinib; first compound 8 µM,0.84
